Reference: patent publication US20250026752A1, “POSITIVE ALLOSTERIC MODULATORS OF THE MUSCARINIC ACETYLCHOLINE RECEPTOR M4” (Vanderbilt University, priority 2021, published 2025)
pEC50: −log10 of the molar value. Like-named read-outs stand apart in the source and are kept apart here.

Biological target: T1, human mAChR M4 (Homo sapiens, UniProt P08173)
T1 construct: expressed in transfected cells; host or cells: CHO-K1 (ATCC), stably expressing hM4 and Gqi5
T1 sequence (P08173 1-479): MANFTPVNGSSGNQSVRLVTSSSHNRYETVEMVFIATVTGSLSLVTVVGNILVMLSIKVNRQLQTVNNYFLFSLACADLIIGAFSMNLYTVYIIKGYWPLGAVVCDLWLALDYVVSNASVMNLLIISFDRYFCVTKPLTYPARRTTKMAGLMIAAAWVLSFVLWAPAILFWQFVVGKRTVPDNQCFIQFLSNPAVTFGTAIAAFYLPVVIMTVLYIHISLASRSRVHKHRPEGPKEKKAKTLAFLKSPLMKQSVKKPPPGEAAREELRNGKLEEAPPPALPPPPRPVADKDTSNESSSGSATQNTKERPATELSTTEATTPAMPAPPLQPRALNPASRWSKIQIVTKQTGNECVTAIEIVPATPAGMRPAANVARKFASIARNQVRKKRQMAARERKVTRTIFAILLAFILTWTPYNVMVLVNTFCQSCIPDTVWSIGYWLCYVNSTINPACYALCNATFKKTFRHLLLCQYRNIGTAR
Test: mAChR M4 cell-based functional assay: calcium flux (Fluo-4, FDSS), positive allosteric modulator activity on the EC20 acetylcholine response, hM4-Gqi5 CHO-K1 cells
Set-up: Emax: dose or concentration left out as unconfirmed
Conditions: for Emax at 30 µM: CHO-K1, human M4, % ACh maximum at 30 μM; for pEC50: PAM activity on EC20 acetylcholine response, calcium flux
Outline: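 Potentiation was taken as the concentration-dependent rise in the EC20 acetylcholine calcium response, fitted by a four-parameter logistic with EC20 as baseline. Fluo-4-loaded hM4-Gqi5 CHO-K1 cells received 11-point, threefold-diluted compound before acetylcholine at 144 s; FDSS read at 1 Hz.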

[1] = human M4, read-out: Human M4 EC50

CC(C)(O)CNc1nc(N2CCc3ncc(C(F)(F)F)cc3C2)c2cc(F)ccc2n1 [Compound 203, 1-[[6-fluoro-4-[3-(trifluoromethyl)-7,8-dihydro-5H-1,6-naphthyridin-6-yl]quinazolin-2-yl]amino]-2-methyl-propan-2-ol]
Emax at 30 µM: 90%
pEC50 [1]: 6.39

Fc1cc2ncnc(N3CCc4ncc(-c5cnn(C6CC6)c5)cc4C3)c2cc1F [Compound 54, 4-[3-(1-cyclopropylpyrazol-4-yl)-7,8-dihydro-5H-1,6-naphthyridin-6-yl]-6,7-difluoro-quinazoline]
Emax at 30 µM: 85%
pEC50 [1]: 6.70

COc1cc2c(N3CCc4ncc(C(F)(F)F)cc4C3)nc(C)nc2cc1F [Compound 169, 7-fluoro-6-methoxy-2-methyl-4-[3-(trifluoromethyl)-7,8-dihydro-5H-1,6-naphthyridin-6-yl]quinazoline]
Emax at 30 µM: 74%
pEC50 [1]: 6.59

Cc1cn(C)nc1-c1cnc2c(c1)CN(c1nc(C(F)(F)F)nc3ccc(F)cc13)CC2 [Compound 64, 4-[3-(1,4-dimethylpyrazol-3-yl)-7,8-dihydro-5H-1,6-naphthyridin-6-yl]-6-fluoro-2-(trifluoromethyl)quinazoline]
Emax at 30 µM: 69%
pEC50 [1]: 6.29

Cc1nc(N2CCc3ncc(-c4cnn(C5CC5)c4)cc3C2)c2cc(Cl)ccc2n1 [Compound 19, 6-chloro-4-[3-(1-cyclopropylpyrazol-4-yl)-7,8-dihydro-5H-1,6-naphthyridin-6-yl]-2-methyl-quinazoline]
Emax at 30 µM: 80%
pEC50 [1]: 6.41

Cc1cc(F)c(F)cc1-c1cnc2c(c1)CN(c1ncnc3ccc(F)cc13)CC2 [Compound 306, 4-(3-(4,5-difluoro-2-methylphenyl)-7,8-dihydro-1,6-naphthyridin-6(5H)-yl)-6-fluoroquinazoline]
Emax at 30 µM: 69%
pEC50 [1]: 5.26

CN1CCN(c2nc(N3CCc4ncc(Nc5ccnn5C)cc4C3)c3cc(F)ccc3n2)CC1 [Compound 211, 6-[6-fluoro-2-(4-methylpiperazin-1-yl)quinazolin-4-yl]-N-(2-methylpyrazol-3-yl)-7,8-dihydro-5H-1,6-naphthyridin-3-amine]
Emax at 30 µM: 80%
pEC50 [1]: 6.33

Cc1nc(N2CCc3ncc(-c4ccc(C5CC5)nc4)cc3C2)c2cc(F)ccc2n1 [Compound 25, 4-[3-(6-cyclopropyl-3-pyridyl)-7,8-dihydro-5H-1,6-naphthyridin-6-yl]-6-fluoro-2-methyl-quinazoline]
Emax at 30 µM: 96%
pEC50 [1]: 6.51

Cn1nccc1Nc1cnc2c(c1)CN(c1ncnc3ccc(Cl)cc13)CC2 [Compound 106, 6-(6-chloroquinazolin-4-yl)-N-(2-methylpyrazol-3-yl)-7,8-dihydro-5H-1,6-naphthyridin-3-amine]
Emax at 30 µM: 95%
pEC50 [1]: 6.89

Cc1ccc2ncnc(N3CCc4ncc(-c5cnc(F)cc5C)cc4C3)c2c1 [Compound 309, 4-(3-(6-fluoro-4-methylpyridin-3-yl)-7,8-dihydro-1,6-naphthyridin-6(5H)-yl)-6-methylquinazoline]
Emax at 30 µM: 83%
pEC50 [1]: 7.40

Fc1cc2ncnc(N3CCc4ncc(N5CCCn6ccnc65)cc4C3)c2cc1F [Compound 277, 4-(3-(6,7-dihydroimidazo[1,2-a]pyrimidin-8(5H)-yl)-7,8-dihydro-1,6-naphthyridin-6(5H)-yl)-6,7-difluoroquinazoline]
Emax at 30 µM: 67%
pEC50 [1]: 5.58

Cc1ccc2nc(Cl)nc(N3CCc4ncc(-c5cnn(C6CC6)c5)cc4C3)c2c1 [Compound 30, 2-chloro-4-[3-(1-cyclopropylpyrazol-4-yl)-7,8-dihydro-5H-1,6-naphthyridin-6-yl]-6-methyl-quinazoline]
Emax at 30 µM: 113%
pEC50 [1]: 6.29

Cc1nc(N2CCc3ncc(C(F)(F)F)cc3C2)c2cc(Cl)ccc2n1 [Compound 134, 6-chlroo-2-methyl-4-[3-(trifluoromethyl)-7,8-dihydro-5H-1,6-naphthyridin-6-yl]quinazoline]
Emax at 30 µM: 75%
pEC50 [1]: 7.05

CC(C)(C)c1cc2n(n1)CCCN2c1cnc2c(c1)CN(c1ncnc3ccc(F)cc13)CC2 [Compound 279, 4-(3-(2-(tert-butyl)-6,7-dihydropyrazolo[1,5-a]pyrimidin-4(5H)-yl)-7,8-dihydro-1,6-naphthyridin-6(5H)-yl)-6-fluoroquinazoline]
Emax at 30 µM: 72%
pEC50 [1]: 6.09

Cc1ncc(-c2cnc3c(c2)CN(c2ncnc4ccc(F)cc24)CC3)s1 [Compound 27, 5-[6-(6-fluoroquinazolin-4-yl)-7,8-dihydro-5H-1,6-naphthyridin-3-yl]-2-methyl-thiazole]
Emax at 30 µM: 110%
pEC50 [1]: 6.77

COc1ccc2ncnc(N3CCc4ncc(Nc5ccnn5C)cc4C3)c2c1 [Compound 80, 6-(6-methoxyquinazolin-4-yl)-N-(2-methylpyrazol-3-yl)-7,8-dihydro-5H-1,6-naphthyridin-3-amine]
Emax at 30 µM: 98%
pEC50 [1]: 6.30

Cc1ccc2ncnc(N3CCc4ncc(-c5cnn(C6CC6)c5)cc4C3)c2c1 [Compound 12, 4-[3-(1-cyclopropylpyrazol-4-yl)-7,8-dihydro-5H-1,6-naphthyridin-6-yl]-6-methyl-quinazoline]
Emax at 30 µM: 114%
pEC50 [1]: 6.64

Fc1ccc2nc(Cl)nc(N3CCc4ncc(Br)cc4C3)c2c1 [Compound 150, 4-(3-bromo-7,8-dihydro-5H-1,6-naphthyridin-6-yl)-2-chloro-6-fluoro-quinazoline]
Emax at 30 µM: 105%
pEC50 [1]: 7.00

Fc1ccccc1Oc1cnc2c(c1)CN(c1ncnc3ccc(Cl)cc13)CC2 [Compound 232, 6-chloro-4-(3-(2-fluorophenoxy)-7,8-dihydro-1,6-naphthyridin-6(5H)-yl)quinazoline]
Emax at 30 µM: 77%
pEC50 [1]: 6.13

Cc1nc(N2CCc3ncc(-c4cnn(C5CC5)c4)cc3C2)c2cc(C(F)(F)F)ccc2n1 [Compound 59, 4-[3-(1-cyclopropylpyrazol-4-yl)-7,8-dihydro-5H-1,6-naphthyridin-6-yl]-2-methyl-6-(trifluoromethyl)quinazoline]
Emax at 30 µM: 58%
pEC50 [1]: 5.71

[2H]c1nc(N2CCc3ncc(N4CCOc5ncccc54)cc3C2)c2cc(C)ccc2n1 [Compound 204, 1-[6-(2-deuterio-6-methyl-quinazolin-4-yl)-7,8-dihydro-5H-1,6-naphthyridin-3-yl]-2,3-dihydropyrido[2,3-b][1,4]oxazine]
Emax at 30 µM: 93%
pEC50 [1]: 7.10

Cc1ccc(Oc2cnc3c(c2)CN(c2ncnc4ccc(F)cc24)CC3)c(F)c1 [Compound 144, 6-fluoro-4-[3-(2-fluoro-4-methyl-phenoxy)-7,8-dihydro-5H-1,6-naphthyridin-6-yl]quinazoline]
Emax at 30 µM: 74%
pEC50 [1]: 5.72

Cc1ccc2nc(C3CC3)nc(N3CCc4ncc(-c5cn(C)nc5C)cc4C3)c2c1 [Compound 176, 2-cyclopropyl-4-[3-(1,3-dimethylpyrazol-4-yl)-7,8-dihydro-5H-1,6-naphthyridin-6-yl]-6-methyl-quinazoline]
Emax at 30 µM: 73%
pEC50 [1]: 6.13

C[C@@H]1CN(c2ncnc3ccc(Cl)cc23)Cc2cc(N3CCOCC3)cnc21 [Compound 260, (R)-4-(6-(6-chloroquinazolin-4-yl)-8-methyl-5,6,7,8-tetrahydro-1,6-naphthyridin-3-yl)morpholine]
Emax at 30 µM: 107%
pEC50 [1]: 6.92

Fc1ccc2ncnc(N3CCc4ncc(-n5cccn5)cc4C3)c2c1 [Compound 68, 6-fluoro-4-(3-pyrazol-1-yl-7,8-dihydro-5H-1,6-naphthyridin-6-yl)quinazoline]
Emax (CHO-K1): 88%
pEC50 (Human M4 EC50, human M4): 6.66

CC1CN(c2ncnc3ccc(F)cc23)Cc2cc(N3C(=O)COc4ccccc43)cnc21 (stereo not drawn) [Compound 251, 4-(6-(6-fluoroquinazolin-4-yl)-8-methyl-5,6,7,8-tetrahydro-1,6-naphthyridin-3-yl)-2H-benzo[b][1,4]oxazin-3(4H)-one]
Emax at 30 µM: 75%
pEC50 [1]: 6.12

COc1cc2c(N3CCc4ncc(-c5cn(C)nc5C)cc4C3)nc(C)nc2cc1F [Compound 61, 4-[3-(1,3-dimethylpyrazol-4-yl)-7,8-dihydro-5H-1,6-naphthyridin-6-yl]-7-fluoro-6-methoxy-2-methyl-quinazoline]
Emax at 30 µM: 57%
pEC50 [1]: 6.35

Cc1nc(N2CCc3ncc(N4CCCn5nccc54)cc3C2)c2cc(F)ccc2n1 [Compound 73, 4-[3-(6,7-dihydro-5H-pyrazolo[1,5-a]pyrimidin-4-yl)-7,8-dihydro-5H-1,6-naphthyridin-6-yl]-6-fluoro-2-methyl-quinazoline]
Emax at 30 µM: 97%
pEC50 [1]: 7.05

Cc1nc(N2CCc3ncc(CC(F)(F)F)cc3C2)c2cc(Cl)ccc2n1 [Compound 287, 6-chloro-2-methyl-4-(3-(2,2,2-trifluoroethyl)-7,8-dihydro-1,6-naphthyridin-6(5H)-yl)quinazoline]
Emax at 30 µM: 85%
pEC50 [1]: 6.44

Cc1nc(N2CCc3ncc(-c4cnc(F)cc4C)cc3C2)c2cc(F)ccc2n1 [Compound 305, 6-fluoro-4-(3-(6-fluoro-4-methylpyridin-3-yl)-7,8-dihydro-1,6-naphthyridin-6(5H)-yl)-2-methylquinazoline]
Emax at 30 µM: 92%
pEC50 [1]: 6.89
